For assay [1], the system named is human mesothelial (HM) cells. Description: HMGB1 localization in HM cells by immunofluorescence staining. In kind it is cell-based. The conditions noted are these: 6 hrs exposure; H2O2 100 μM, actinomycin D 0.1 μM. How it is done: After fixation and permeabilization, cells were incubated with HMGB1 antibody (BD Bioscience Pharmingen) and a fluorescein-conjugated secondary antibody (Chemicon, Temecula). Nuclei were stained with DAPI.

A further assay relates to macrophages. Description: TNF-α secretion by macrophages given culture medium from exposed HM. The format is cell-based, human. The conditions noted are these: concentrated HM culture medium added to macrophages. On the procedure:
Expression levels of HMGB1 and its receptors RAGE, TLR2 and TLR4 in a panel of 8 MM cell lines and 8 distinct primary HM cultures were determined Primary human mesothelial cells (HM) were obtained from pleural effusions of eight different patients, pathologically diagnosed free of malignancy at the Queen's Medical Center, Honolulu, Hi. […] HM were cultured in Dulbecco's Modified Eagle Medium (DMEM) (Mediatech Inc., Manassas, Va.) containing 20% fetal bovine serum (FBS) (Gibco, Carlsbad, Calif.) and penicillin-streptomycin (100 units/ml penicillin G and 100 μg/ml streptomycin sulfate) (GIBCO), and were used between second and fifth passages. THP-1 human monocytes (ATCC, Manassas, Va.) were differentiated into macrophages by phorbol 12-myristate 13-acetate (TPA). The pleural malignant mesothelioma (MM) cell lines were established from surgically resected human MM specimens and used comparatively in our studies. REN cells were provided by Dr. Steven Albelda (University of Pennsylvania, Philadelphia, Pa.), while all other cell lines used in this study were provided by Dr. Harvey I. Pass (NYU School of Medicine, New York, N.Y.). MM cells were maintained in DMEM containing 10% FBS. All cells were cultured at 37° C. in a humidified atmosphere with 5% CO2 and grown to approximately 80-90% confluency. […]
Next, it was determined whether the release of HMGB1 was linked to an inflammatory response. […]

*1 amine or outer side, *2 acyl side, *3 side chain or, on linkers, in order; H or OH if unused. Where a SMILES comes first, the peptide text is derived from it. Bridges are numbered along the chain shown (N, C = ends). Roman numbers before positions name the chains, in order. [ ]: non-standard residue; d: D form. Actinocin(9to1) = Cc1c2oc3c(C)ccc(C(=O)[*:1])c3nc-2c(C(=O)[*:2])c(N)c1=O; NMeV = CN[C@H](C(=O)O)C(C)C; Sar = CNCC(=O)O

In the case of `OO` [H2O2], in assay [1], the “HMGB1 localization in HM cells” value is given as “translocated from the nucleus into the cytosol”.

Turning to `Cc1c2oc3c(C)ccc(C(=O)N[C@@H]4C(=O)N[C@H](C(C)C)C(=O)N5CCC[C@H]5C(=O)N(C)CC(=O)N(C)[C@@H](C(C)C)C(=O)O[C@@H]4C)c3nc-2c(C(=O)N[C@@H]2C(=O)N[C@H](C(C)C)C(=O)N3CCC[C@H]3C(=O)N(C)CC(=O)N(C)[C@@H](C(C)C)C(=O)O[C@@H]2C)c(N)c1=O` [actinomycin D] (I: T[dV]P[Sar][NMeV] / II: T[dV]P[Sar][NMeV]; ester I:1-I:C, II:1-II:C; linker I:N-II:N via Actinocin(9to1)), in the assay on macrophages, the “macrophage secretion of TNF-α induced by culture medium from HM exposed to the substance” value was “did not induce TNF-α secretion”. In assay [1], the “HMGB1 localization in HM cells” value was “remained within the nucleus”.
